Measured values reported in patent US8455435B2, “Remedies for ischemia” (Ludwig-Maximilians-Universitat Munchen, priority 2006, dated 2013).

What was measured:
SCF = SCF serum level by ELISA after PTH; type: in vivo, C57BL/6 mice; conditions: day 6 of PTH stimulation
Protocol: (§1) Mice were divided into the following groups: 1) administration of saline daily for 6 days, sacrificed at day 7 (n=6). 2) administration of PTH (Bachem) daily for 6 consecutive days (80 μg per kg body weight per day, intraperitoneally), sacrificed at day 7 (n=6). 3) administration of PTH daily for 14 consecutive days, sacrificed at day 15 (n=6). 4) administration of G-CSF (Amgen Biologicals) daily for 5 consecutive days (200 μg per kg body weight per day, intraperitoneally), sacrificed at day 6 (n=6).
(§2) G-CSF and SCF serum levels were determined by ELISA (Mouse G-CSF and Mouse SCF, RayBiotech).

G-CSF = G-CSF serum level by ELISA after PTH; type: in vivo, C57BL/6 mice
Protocol: as §1, §2

[1] = test system: CD45 positive stem cells in peripheral blood; assay: Mobilization of bone marrow derived cells by PTH(1-34), flow cytometry of peripheral blood; type: in vivo, C57BL/6 mice
Protocol: 8-12 week old C57BL/6 mice (n=5) were either treated with PTH (80 μg/kg/d) or saline daily for 5 or 14 consecutive days. At day 6 and day 14, 1 ml of peripheral blood was harvested from each mouse by aspirating the carotid artery. To define the number of leukocytes, heparinized blood samples were analyzed using a conventional hematological cell analyzer (Sysmex XE 2100). Mononuclear cells were separated by density-gradient centrifugation using Histopaque solution (1.077 g/ml, Sigma Chemicals), purified and resuspended in phosphate-buffered saline (PBS) containing 1% bovine serum albumin. Cells were incubated for 40 minutes in the dark at 4° C. with the following fluorescein-isothiocyanate (FITC), phycoerythrin (PE), and peridinin-chlorophyll-protein (PerCP) conjugated monoclonal antibodies: CD45− PerCP, CD34-FITC, CD31-PE, Sca-1-PE and c-kit-PE (all from BD Pharmingen). Matching isotype antibodies (BD Pharmingen) served as controls. Cells were analyzed by 3-color flow cytometry using a Coulter® Epics® XL-MCL™ flow cytometer (Beckman Coulter). Each analysis included 20000 events.

VEGF-A and VEGF-R1 = assay: VEGF-A/VEGF-R1 expression in infarct and borderzone after MI, PTH treatment; type: in vivo, mice
Excerpt: FIGS. 18A-18B: Immunohistochemical staining of VEGF-A protein in the granulation tissue at the infarct borderzone and RT-PCR analysis of VEGF-A/VEGF-R1 expression • A) Representative staining of VEGF-A protein (brown) in the granulation tissue of sham operated (left), saline (middle) and PTH treated hearts (right). VEGF-A protein is mainly localized on infiltrated cells in the granulation tissue at the borderzone. • B) Bar graphs representing the relative fold increase of VEGF-A (left) and VEGF-1 receptor (right) mRNA expression of saline treated (n=3, striped bars) and of PTH treated myocardial tissue (n=3-5, black bars) normalized to non infarcted control mice (n=3) 48 hours after myocardial infarction. *p<0.05.

[2] = test system: CD45/Sca-1 and CD45/CD34 positive stem cells; assay: PTH induced migration of CD45+ stem cells to the ischemic heart; type: in vivo, mice; conditions: 48 hours after myocardial ischemia

Substance: rat PTH (1-34)
- serum level of SCF (SCF): 594.6 ± 26.8 pg/mL
- increase of G-CSF serum value (G-CSF; PTH treated mice, ELISA): 2.8 fold
- serum level of G-CSF (G-CSF; day 6 of PTH stimulation): 6035.5 ± 1318.4 pg/mL
- increase of CD45+/CD34+ cells ([1]; day 6): 4.4 fold
- increase of CD45+/CD34+/CD31+ cells ([1]; day 6): 2.9 fold
- increase of CD45+/CD34+/Sca-1+ cells ([1]; day 6): 2.9 fold
- increase of CD45+/CD34+/c-kit+ cells ([1]; day 6): 6.1 fold
- increase of CD45+/CD34+ cells ([1]; day 14): 6.0 fold
- increase of CD45+/CD34+/CD31+ cells ([1]; day 14): 3.1 fold
- increase of CD45+/CD34+/Sca-1+ cells ([1]; day 14): 2.9 fold
- increase of CD45+/CD34+/c-kit+ cells ([1]; day 14): 9.0 fold
- expression of VEGF-A and VEGF-R1 (VEGF-A and VEGF-R1): pronounced expression
- migration of CD45/Sca-1 and CD45/CD34 positive stem cells to the heart [2]: enhanced migration
